Results taken from the NIST ThermoML archive (doi:10.1016/j.jct.2019.01.024).
± gives the expanded uncertainty stated by the source.

Experiment: mn = molality of the nth substance listed, in mol/kg
Settings: 101 kPa, Liquid; for viscosity: Falling or rolling sphere viscometry; for speed of sound: Frequency=3 MHz, Single path-length method; for mass density: Vibrating tube method

NNC(=O)c1ccncc1 [isonicotinic acid hydrazide] + O
Settings | mass density [kg/m3] | speed of sound [m/s] | viscosity [mPa·s]
293.15 K, m1 = 0.0255 | 999.11 ± 0.3 | 1485.3 ± 7 | 1.006 ± 0.061
293.15 K, m1 = 0.0494 | 999.92 ± 0.3 | 1486.9 ± 7 | 1.012 ± 0.061
293.15 K, m1 = 0.0754 | 1000.8 ± 0.3 | 1488.6 ± 7 | 1.018 ± 0.062
293.15 K, m1 = 0.1 | 1001.64 ± 0.3 | – | 1.024 ± 0.062
293.15 K, m1 = 0.1253 | 1002.5 ± 0.3 | 1491.8 ± 7 | 1.03 ± 0.062
293.15 K, m1 = 0.15 | 1003.35 ± 0.31 | 1493.4 ± 7 | 1.037 ± 0.063
293.15 K, m1 = 0.2002 | 1005.07 ± 0.31 | 1496.5 ± 7 | 1.049 ± 0.063
293.15 K, m1 = 0.2492 | 1006.75 ± 0.31 | 1499.4 ± 7 | 1.062 ± 0.064
293.15 K, m1 = 0.3001 | 1008.5 ± 0.31 | 1502.4 ± 7 | 1.075 ± 0.065
293.15 K, m1 = 0.3489 | 1010.18 ± 0.31 | 1505.1 ± 7 | 1.088 ± 0.066
293.15 K, m1 = 0.4003 | 1011.96 ± 0.31 | 1507.9 ± 7 | 1.102 ± 0.067
298.15 K, m1 = 0.0255 | 997.93 ± 0.3 | 1498.6 ± 7 | 0.8937 ± 0.054
298.15 K, m1 = 0.0494 | 998.74 ± 0.3 | 1500.2 ± 7 | 0.8984 ± 0.054
298.15 K, m1 = 0.0754 | 999.61 ± 0.3 | 1501.9 ± 7 | 0.9036 ± 0.055
298.15 K, m1 = 0.1 | 1000.45 ± 0.3 | – | 0.9086 ± 0.055
298.15 K, m1 = 0.1253 | 1001.3 ± 0.3 | 1505.1 ± 7 | 0.9138 ± 0.055
298.15 K, m1 = 0.15 | 1002.14 ± 0.3 | 1506.6 ± 7 | 0.9191 ± 0.056
298.15 K, m1 = 0.2002 | 1003.84 ± 0.31 | 1509.7 ± 7 | 0.9298 ± 0.056
298.15 K, m1 = 0.2492 | 1005.51 ± 0.31 | 1512.6 ± 7 | 0.9401 ± 0.057
298.15 K, m1 = 0.3001 | 1007.25 ± 0.31 | 1515.6 ± 7 | 0.951 ± 0.058
298.15 K, m1 = 0.3489 | 1008.91 ± 0.31 | 1518.4 ± 7 | 0.9616 ± 0.058
298.15 K, m1 = 0.4003 | 1010.67 ± 0.31 | 1521.3 ± 7 | 0.9729 ± 0.059
303.15 K, m1 = 0.0255 | 996.53 ± 0.3 | 1510.1 ± 7 | 0.8001 ± 0.048
303.15 K, m1 = 0.0494 | 997.34 ± 0.3 | 1511.6 ± 7 | 0.804 ± 0.049
303.15 K, m1 = 0.0754 | 998.21 ± 0.3 | 1513.3 ± 7 | 0.8084 ± 0.049
303.15 K, m1 = 0.1 | 999.03 ± 0.3 | – | 0.8125 ± 0.049
303.15 K, m1 = 0.1253 | 999.88 ± 0.3 | 1516.4 ± 7 | 0.8169 ± 0.049
303.15 K, m1 = 0.15 | 1000.71 ± 0.3 | 1517.9 ± 7 | 0.8213 ± 0.05
303.15 K, m1 = 0.2002 | 1002.4 ± 0.3 | 1521 ± 7 | 0.8301 ± 0.05
303.15 K, m1 = 0.2492 | 1004.05 ± 0.31 | 1523.9 ± 7 | 0.8389 ± 0.051
303.15 K, m1 = 0.3001 | 1005.77 ± 0.31 | 1526.9 ± 7 | 0.8482 ± 0.051
303.15 K, m1 = 0.3489 | 1007.42 ± 0.31 | 1529.7 ± 7 | 0.8571 ± 0.052
303.15 K, m1 = 0.4003 | 1009.16 ± 0.31 | 1532.6 ± 7 | 0.8661 ± 0.052
308.15 K, m1 = 0.0255 | 994.92 ± 0.31 | 1521.4 ± 7 | 0.7213 ± 0.044
308.15 K, m1 = 0.0494 | 995.72 ± 0.31 | 1522.9 ± 7 | 0.7246 ± 0.044
308.15 K, m1 = 0.0754 | 996.58 ± 0.3 | 1524.5 ± 7 | 0.7282 ± 0.044
308.15 K, m1 = 0.1 | 997.4 ± 0.3 | – | 0.7317 ± 0.044
308.15 K, m1 = 0.1253 | 998.25 ± 0.3 | 1527.6 ± 7 | 0.7353 ± 0.044
308.15 K, m1 = 0.15 | 999.08 ± 0.3 | 1529.1 ± 7 | 0.7389 ± 0.045
308.15 K, m1 = 0.2002 | 1000.75 ± 0.3 | 1532.2 ± 7 | 0.7463 ± 0.045
308.15 K, m1 = 0.2492 | 1002.39 ± 0.3 | 1535.1 ± 7 | 0.7537 ± 0.046
308.15 K, m1 = 0.3001 | 1004.1 ± 0.31 | 1538.1 ± 7 | 0.7612 ± 0.046
308.15 K, m1 = 0.3489 | 1005.74 ± 0.31 | 1540.9 ± 7 | 0.7687 ± 0.046
308.15 K, m1 = 0.4003 | 1007.46 ± 0.31 | 1543.8 ± 7 | 0.7765 ± 0.047
313.15 K, m1 = 0.0255 | 993.1 ± 0.31 | 1528.4 ± 7 | 0.6545 ± 0.04
313.15 K, m1 = 0.0494 | 993.89 ± 0.31 | 1529.8 ± 7 | 0.6572 ± 0.04
313.15 K, m1 = 0.0754 | 994.75 ± 0.31 | 1531.4 ± 7 | 0.6602 ± 0.04
313.15 K, m1 = 0.1 | 995.57 ± 0.31 | – | 0.6632 ± 0.04
313.15 K, m1 = 0.1253 | 996.41 ± 0.31 | 1534.4 ± 7 | 0.6663 ± 0.04
313.15 K, m1 = 0.15 | 997.23 ± 0.3 | 1535.8 ± 7 | 0.6693 ± 0.041
313.15 K, m1 = 0.2002 | 998.9 ± 0.3 | 1538.8 ± 7 | 0.6756 ± 0.041
313.15 K, m1 = 0.2492 | 1000.53 ± 0.3 | 1541.7 ± 7 | 0.6818 ± 0.041
313.15 K, m1 = 0.3001 | 1002.22 ± 0.3 | 1544.6 ± 7 | 0.6882 ± 0.042
313.15 K, m1 = 0.3489 | 1003.84 ± 0.31 | 1547.3 ± 7 | 0.6944 ± 0.042
313.15 K, m1 = 0.4003 | 1005.55 ± 0.31 | 1550.2 ± 7 | 0.7007 ± 0.042
318.15 K, m1 = 0.0255 | 991.08 ± 0.31 | 1534.5 ± 7 | 0.5987 ± 0.036
318.15 K, m1 = 0.0494 | 991.87 ± 0.31 | 1535.9 ± 7 | 0.6009 ± 0.036
318.15 K, m1 = 0.0754 | 992.73 ± 0.31 | 1537.4 ± 7 | 0.6034 ± 0.036
318.15 K, m1 = 0.1 | 993.54 ± 0.31 | – | 0.6058 ± 0.037
318.15 K, m1 = 0.1253 | 994.38 ± 0.31 | 1540.3 ± 7 | 0.6084 ± 0.037
318.15 K, m1 = 0.15 | 995.19 ± 0.31 | 1541.7 ± 7 | 0.611 ± 0.037
318.15 K, m1 = 0.2002 | 996.85 ± 0.3 | 1544.5 ± 7 | 0.6163 ± 0.037
318.15 K, m1 = 0.2492 | 998.46 ± 0.3 | 1547.3 ± 7 | 0.6215 ± 0.038
318.15 K, m1 = 0.3001 | 1000.14 ± 0.3 | 1550.2 ± 7 | 0.6268 ± 0.038
318.15 K, m1 = 0.3489 | 1001.75 ± 0.3 | 1552.9 ± 7 | 0.6321 ± 0.038
318.15 K, m1 = 0.4003 | 1003.44 ± 0.31 | 1555.7 ± 7 | 0.6375 ± 0.038

O [water] + NNC(=O)c1ccncc1
m2 = 0
Settings | mass density [kg/m3] | speed of sound [m/s] | viscosity [mPa·s]
293.15 K | – | 1483.6 ± 7 | 1.002 ± 0.061
298.15 K | – | – | 0.8903 ± 0.054
303.15 K | – | 1508.4 ± 7 | 0.7973 ± 0.048
308.15 K | 994.07 ± 0.31 | – | 0.719 ± 0.043
313.15 K | – | 1526.8 ± 7 | 0.6526 ± 0.04
318.15 K | – | 1533 ± 7 | 0.5972 ± 0.036
